According to patent publication US12178825B2, “Method and compositions for forming a copper-containing complex and uses thereof” (COLD SPRING HARBOR LABORATORY, priority 2017, dated 2024):
“Also recorded” adds a separate entry of the source.

Tests used:
MDA-MB-468 cells = assay: Cell survival; format: cell-based
Method: (§1) The MTT assay was used to evaluate cell survival in the absence and presence of different compounds. The thiazolyl blue tetrazolium bromide (MTT) was dissolved in phosphate buffered saline (PBS) at a concentration of 5 mg/ml, filtered, and stored at 4° C. About 10,000 cells were seeded into a 96-well plate and cultured in growth medium containing serum. After 24 hours, cells were treated with the indicated concentrations of DPM-1001 or DPM-1003 (0-100 uM) for 2 hrs. Following which 20 μl MTT was added into each well. An ELISA plate reader (Biotek, Winooski, Vermont, USA) was used to measure the optical density at 490 nm.

SNU1 = assay: Cell survival; format: cell-based
Method: as §1

SNU5 cells = assay: Cell survival; format: cell-based
Method: as §1

AGS cells = assay: Cell survival; format: cell-based
Method: as §1

N87 = assay: Cell survival; format: cell-based
Method: as §1

KATOIII cells = assay: Cell survival; format: cell-based
Method: as §1

NIH 3T3 cells = assay: Cell survival; format: cell-based
Method: as §1

SNU116 cells = assay: Cell survival; format: cell-based
Method: as §1

[1] = ESI-MS analysis of complex formation with copper salts; format: binding
Method: Eight equivalents of M(NO3)2·xH2O or MSO4·xH2O (M=Cu, Zn) were reacted with 1 eq. of DPM-1001 (1 mM in H2O). The reaction solutions were stirred at RT, 40° C. and 80° C. for 2 h. Mass spectra were recorded on a Bruker Esquire 6000 HCT quadrupole ion trap instrument (Bruker Daltonik GmbH, Leipzig, Germany), equipped with an electrospray ionization (ESI) source. Generation of the molecular formula of the DPM-1001/Cu(II) species and the comparison between the theoretical (simulated) and the measured isotopic patterns was performed using the DataAnalysis 4.0 software (Bruker).
Eight equivalents of M(NO3)2·xH2O or MSO4·xH2O were reacted with 1 eq. of DPM-1001, DPM-1003 or analog 2 (1 mM in H2O). The reaction solutions were stirred at RT, 40° C. and 80° C. for 2 h. Each sample was diluted 5-fold in 50% methanol, 0.1% formic acid and loaded into a 500 μL syringe. A Thermo Vantage triple quadrupole mass spectrometer (Thermo Scientific), equipped with an HESI spray source was coupled to an Accela HPLC system (Thermo Scientific). Mobile phase A consisted of 0.1% formic acid and mobile phase B consisted of 0.1% formic acid in methanol. Isocratic flow was set to 50% B at 200 μL/min. 200 μl samples were injected into the LC flow line via syringe pump at 10 μL/min and electrosprayed into the Vantage triple quadrupole mass spectrometer. A spray voltage of 4.3 kV was used along with a capillary temperature of 350° C. Each full MS scan was 0.5 s and data were collected with a scan range of 200 m/z to 900 m/z over 1 min.
Binding of compounds of Formula I other than DPM-1001 was also confirmed. In an ESI-MS test, compound DPM-1013 as hydrochloride salt was dissolved in distilled water at a concentration of 2 mM freshly before testing. It was then mixed with an equal volume copper sulfate (16 mM) or copper chloride solution (16 mM) for 2 h, rendering a concentration of DPM-1013 at 1 mM and the copper salt 8 mM. The mixture was then further diluted 100-fold before injection into an ESI-MS, making a final concentration of DPM-1013 of 10 μM and Cu 80 μM in the test.
Binding percentage=peak intensity of all DPM-1013-Cu complex/(peak intensity of all DPM-1013-Cu complex+peak intensity of free DPM-1013).

TNBC cells = assay: Immunoblot of copper-induced signaling; format: cell-based; details: co-administration
Description: Equal quantities of lysates were isolated from indicated cell lines and then resolved by SDS-PAGE and immunoblotted with one of the following primary antibodies: mouse anti-MEK1/2, rabbit anti-p-PAK1, rabbit anti-PAK1, rabbit anti-ERK1/2, rabbit anti-phospho(Ser 217/221)-MEK1/2, rabbit anti-phospho(Thr 202/Tyr 204)-ERK1/2, rabbit anti-phospho (Ser 338)-c-RAF, rabbit anti-RAF, rabbit anti-phospho (Ser 112)-BAD and rabbit anti-BAD (Cell Signaling Technology), mouse anti-β-actin (Sigma), followed by detection with one of the following horseradish peroxidase-conjugated secondary antibodies: goat anti-rabbit IgG, goat anti-mouse IgG (Invitrogen), mouse anti-rabbit light-chain-specific IgG (Jackson ImmunoResearch Laboratories) using enhanced chemiluminescence (ECL; GE Healthcare) or SuperSignal West Femto Chemiluminescent substrate (Pierce) detection reagents.

[2] = Body weight in diet-induced obesity; format: in vivo, C57Bl6/J mice
Method: All protocols were approved by the Institutional Animal Use and Care Committee of Cold Spring Harbor laboratory. 10 week-old male mice fed chow diet or high-fat diet (D12492) were acclimatized for 10 days under standard conditions before experiments. Mice were injected intraperitoneally (i.p.) once daily with vehicle, 5 mg/kg of DPM-1001 intraperitoneally or orally for 50 days. Mice were euthanized after 6 h of fasting, and serum samples were collected to measure the metabolic parameters and tissue samples were collected for studying changes in signaling.

## COC(=O)CCC(C)C1CCC2C3C(O)CC4CC(NCCCCNCc5ccccn5)CCC4(C)C3CCC12C (stereo not shown) [DPM-1001]
MDA-MB-468 cells
  survival of MDA-MB-468 cells: inhibitory effect
SNU1
  survival of SNU1 cells: inhibited survival
SNU5 cells
  survival of SNU5 cells: inhibited survival; also recorded: inhibitory effect
AGS cells
  survival of AGS cells: inhibited survival; also recorded: inhibitory effect
N87
  survival of N87 cells: inhibited survival; also recorded: inhibitory effect
KATOIII cells
  survival of KATOIII cells: inhibited survival; also recorded: inhibitory effect
NIH 3T3 cells
  survival of NIH 3T3 cells: no effect on survival
SNU116 cells
  survival of SNU116 cells: inhibited survival; also recorded: inhibitory effect
[1]
  complex formation with copper: Formed a Stable Complex with Copper(II)
TNBC cells; 5-10 μM copper in culture media
  copper-induced increase of pS338-RAF1 and pS112-BAD: reduced or blocked
TNBC cells; copper added to culture media
  copper-induced increase of phospho-PAK1: blocked
[2]; chow diet
  weight loss in chow fed mice: without weight loss; also recorded: no weight loss
[2]; high fat diet-fed mice
  onset of weight loss: started losing weight within five days of treatment
